Consider one compound from paper PMC11369081, “Molecular mechanism of prolactin-releasing peptide recognition and signaling via its G protein-coupled receptor” (Cell Discovery, 2024).

Molecules are shown by their SMILES. Peptide text beside a SMILES is read from it.

Common to all, as to type: cell-based
In one assay the target is T1, PrRPR F313A (Homo sapiens, UniProt P49683, F313A).
T1 construct: Flag; expressed in transfected cells; host or cells: AD293 cells
Briefly: BRET2 Gq dissociation, F313A. To be noted: F313A (7.31), Gq-coupling, AD293 cells; mean ± S.E.M., n = 3; P 0.0012 vs WT; read-out: BRET2 pEC50 (converted). As to the method:
(§1) AD293 cells (Agilent) were propagated in Dulbecco’s Modified Eagle Medium (DMEM, Thermo Fisher Scientific), enriched with 10% fetal bovine serum (FBS, Thermo Fisher Scientific), and maintained at 37 °C in a 5% CO2 environment. Cells were then seeded in 6-well dishes at a density of 130,000–150,000 cells per mL and allowed to incubate overnight. On the next day, cells were transfected with plasmids at a 1:1:1:1 ratio for receptor:Gα-RLuc8:Gβ:Gγ-GFP2[52]. PEI MAX 40 K (BIOHUB) was utilized to form complex with the plasmids at a ratio of 3 µL PEI per µg of plasmids, in OptiMEM (Gibco-Thermo Fisher Scientific) at a concentration of 10 ng plasmids per µL OptiMEM. After 24 h of incubation, the culture was harvested by centrifugation with PBS. The cell suspension was then allocated into a white 384-well plate at a volume of 30 µL per well, followed by the addition of 10 µL of freshly prepared 50 µM coelenterazine 400a (Yeasen). […] Plates were subsequently read in a BioTek Synergy H1 microplate reader (BioTek) equipped with 395 nm (RLuc8-coelenterazine 400a) and 510 nm (GFP2) emission filters. BRET2 ratios were calculated as the ratio of the GFP2 emission to RLuc8 emission. […]
(§2) Supplementary Fig. S4 | Effects of mutations in the ligand-binding pocket and G protein intereface of Gq coupled PrRPR by BRET2 assay. […] BRET2 assay signals were measured after stimulation with PrRP20. […]

A further assay addresses T2, PrRPR Y225A (Homo sapiens, UniProt P49683, Y225A).
T2 construct: Flag; expressed in transfected cells; host or cells: AD293 cells
As to the kind of experiment: BRET2 Gi dissociation, Y225A. The note with it: Y225A (5.38), Gi-coupling, AD293 cells; mean ± S.E.M., n = 3; P <0.0001 vs WT; read-out: BRET2 pEC50 (converted). As to the method:
(§3) AD293 cells (Agilent) were propagated in Dulbecco’s Modified Eagle Medium (DMEM, Thermo Fisher Scientific), enriched with 10% fetal bovine serum (FBS, Thermo Fisher Scientific), and maintained at 37 °C in a 5% CO2 environment. Cells were then seeded in 6-well dishes at a density of 130,000–150,000 cells per mL and allowed to incubate overnight. On the next day, cells were transfected with plasmids at a 1:1:1:1 ratio for receptor:Gα-RLuc8:Gβ:Gγ-GFP2[52]. PEI MAX 40 K (BIOHUB) was utilized to form complex with the plasmids at a ratio of 3 µL PEI per µg of plasmids, in OptiMEM (Gibco-Thermo Fisher Scientific) at a concentration of 10 ng plasmids per µL OptiMEM. After 24 h of incubation, the culture was harvested by centrifugation with PBS. The cell suspension was then allocated into a white 384-well plate at a volume of 30 µL per well, followed by the addition of 10 µL of freshly prepared 50 µM coelenterazine 400a (Yeasen). Following a 15-min equilibration period, cells were treated with 10 µL of ligand for an additional 5 min. Plates were subsequently read in a BioTek Synergy H1 microplate reader (BioTek) equipped with 395 nm (RLuc8-coelenterazine 400a) and 510 nm (GFP2) emission filters. BRET2 ratios were calculated as the ratio of the GFP2 emission to RLuc8 emission. Data were normalized to the baseline response of the ligand. […]

A further assay deals with T3, PrRPR D302A (Homo sapiens, UniProt P49683, D302A).
T3 construct: Flag; expressed in transfected cells; host or cells: AD293 cells
As to the kind of experiment: BRET2 Gq dissociation, D302A. To be noted: D302A (6.59), Gq-coupling, AD293 cells; mean ± S.E.M., n = 3; P <0.0001 vs WT; read-out: BRET2 pEC50 (converted). On the procedure: as §1, §2

In the next assay the target is T4, PrRPR L229A (Homo sapiens, UniProt P49683, L229A).
T4 construct: Flag; expressed in transfected cells; host or cells: AD293 cells
As to the kind of experiment: BRET2 Gi dissociation, L229A. The note with it: L229A (5.42), Gi-coupling, AD293 cells; mean ± S.E.M., n = 3; P <0.0001 vs WT; read-out: BRET2 pEC50 (converted). As to the method: as §3

Another assay deals with T5, PrRPR C113A (Homo sapiens, UniProt P49683, C113A).
T5 construct: expressed in transfected cells; host or cells: AD293 cells
As to the kind of experiment: BRET2 Gi dissociation, C113A. To be noted: C113A (2.57), Gi-coupling, AD293 cells; mean ± S.E.M., n = 3; P 0.0008 vs WT; read-out: BRET2 pEC50 (converted). As to the method: as §3

In another assay the target is T6, PrRPR Y120A (Homo sapiens, UniProt P49683, Y120A).
T6 construct: expressed in transfected cells; host or cells: AD293 cells
As to the kind of experiment: BRET2 Gq dissociation, Y120A. The note with it: Y120A (2.64), Gq-coupling, AD293 cells; mean ± S.E.M., n = 3; P <0.0001 vs WT; read-out: BRET2 pEC50 (converted). As to the method: as §1, §2

Another assay concerns the target T7, PrRPR V208A (Homo sapiens, UniProt P49683, V208A).
T7 construct: expressed in transfected cells; host or cells: AD293 cells
As to the kind of experiment: BRET2 Gq dissociation, V208A. The note with it: V208A (ECL2), Gq-coupling, AD293 cells; mean ± S.E.M., n = 3; P 0.0347 vs WT; read-out: BRET2 pEC50 (converted). On the procedure:
as §1, §2

A further assay has as its target T8, PrRPR L203A (Homo sapiens, UniProt P49683, L203A).
T8 construct: expressed in transfected cells; host or cells: AD293 cells
Briefly: BRET2 Gq dissociation, L203A. To be noted: L203A (ECL2), Gq-coupling, AD293 cells; mean ± S.E.M., n = 3; P 0.0021 vs WT; read-out: BRET2 pEC50 (converted). As to the method:
as §1, §2

A further assay addresses T9, PrRPR L294A (Homo sapiens, UniProt P49683, L294A).
T9 construct: Flag; expressed in transfected cells; host or cells: AD293 cells
Briefly: BRET2 Gi dissociation, L294A. The note with it: L294A (6.51), Gi-coupling, AD293 cells; mean ± S.E.M., n = 3; P 0.2845 vs WT; read-out: BRET2 pEC50 (converted). As to the method:
as §3

The target of a further assay is T10, PrRPR WT (Homo sapiens, UniProt P49683).
T10 construct: expressed in transfected cells; host or cells: AD293 cells
T10 sequence (P49683 1-370): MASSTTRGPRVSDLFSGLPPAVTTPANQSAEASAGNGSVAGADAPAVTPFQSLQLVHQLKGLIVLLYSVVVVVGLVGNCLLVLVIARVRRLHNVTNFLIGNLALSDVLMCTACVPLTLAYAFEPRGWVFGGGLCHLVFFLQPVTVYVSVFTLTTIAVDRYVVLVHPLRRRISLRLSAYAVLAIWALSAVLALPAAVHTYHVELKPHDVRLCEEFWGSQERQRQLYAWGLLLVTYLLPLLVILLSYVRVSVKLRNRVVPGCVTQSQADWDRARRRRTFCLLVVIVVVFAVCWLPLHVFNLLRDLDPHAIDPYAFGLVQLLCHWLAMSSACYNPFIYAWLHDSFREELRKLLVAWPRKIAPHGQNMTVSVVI
Briefly: BRET2 Gq dissociation, WT. The note with it: WT (reference for normalisation), Gq-coupling, AD293 cells; n = 3. As to the method: as §1, §2

T8 sequence (P49683 whole entry L203A): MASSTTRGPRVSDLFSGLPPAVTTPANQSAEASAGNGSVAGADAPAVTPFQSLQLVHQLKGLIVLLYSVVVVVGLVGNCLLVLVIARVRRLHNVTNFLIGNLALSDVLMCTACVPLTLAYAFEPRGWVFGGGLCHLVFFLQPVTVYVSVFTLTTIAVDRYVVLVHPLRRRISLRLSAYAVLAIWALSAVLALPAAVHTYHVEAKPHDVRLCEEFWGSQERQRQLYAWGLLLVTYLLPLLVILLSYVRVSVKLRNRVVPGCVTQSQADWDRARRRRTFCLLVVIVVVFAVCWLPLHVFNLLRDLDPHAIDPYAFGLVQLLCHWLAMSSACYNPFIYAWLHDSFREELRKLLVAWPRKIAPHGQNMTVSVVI
T9 sequence (P49683 whole entry L294A): as the sequence (P49683 whole entry L203A) above, with A203L, L294A counted along it
T6 sequence (P49683 whole entry Y120A): as the sequence (P49683 whole entry L203A) above, with Y120A, A203L counted along it
T5 sequence (P49683 whole entry C113A): as the sequence (P49683 whole entry L203A) above, with C113A, A203L counted along it
T4 sequence (P49683 whole entry L229A): as the sequence (P49683 whole entry L203A) above, with A203L, L229A counted along it
T1 sequence (P49683 whole entry F313A): as the sequence (P49683 whole entry L203A) above, with A203L, F313A counted along it
T7 sequence (P49683 whole entry V208A): as the sequence (P49683 whole entry L203A) above, with A203L, V208A counted along it
T3 sequence (P49683 whole entry D302A): as the sequence (P49683 whole entry L203A) above, with A203L, D302A counted along it
T2 sequence (P49683 whole entry Y225A): as the sequence (P49683 whole entry L203A) above, with A203L, Y225A counted along it

With `CC[C@H](C)[C@H](NC(=O)CNC(=O)[C@H](CCCNC(=N)N)NC(=O)[C@H](CO)NC(=O)[C@H](C)NC(=O)[C@H](Cc1ccc(O)cc1)NC(=O)[C@H](Cc1c[nH]c2ccccc12)NC(=O)[C@H](C)NC(=O)[C@@H]1CCCN1C(=O)[C@H](CC(N)=O)NC(=O)[C@@H](NC(=O)[C@H](CC(=O)O)NC(=O)[C@@H]1CCCN1C(=O)[C@@H](N)[C@@H](C)O)[C@@H](C)CC)C(=O)N[C@@H](CCCNC(=N)N)C(=O)N1CCC[C@H]1C(=O)N[C@H](C(=O)NCC(=O)N[C@@H](CCCNC(=N)N)C(=O)N[C@@H](Cc1ccccc1)C(N)=O)C(C)C` [PrRP20] (H-TPDINPAWYASRGIRPVGRF-NH2), the EC50 is 3.39 nM at PrRPR F313A; 550 nM at PrRPR Y225A; 151 nM on PrRPR D302A; 85.1 nM at PrRPR L229A; 7.08 nM at PrRPR C113A; 191 nM on PrRPR Y120A. Besides, the EC50 is 2.45 nM at PrRPR V208A, 3.09 nM on PrRPR L203A and 3.72 nM on PrRPR L294A. In addition, the BRET2 span on PrRPR WT is recorded as 100.00 %WT.
